Publication PMC5556071, “ATR inhibition facilitates targeting of leukemia dependence on convergent nucleotide biosynthetic pathways” (Nature Communications, 2017)
Several values for one entry are separate records, joined by “and”; a condition that tells them apart may be missing. Equal values may be shown once.

Tested on: CEM cells
Test: Non-targeted LC-MS metabolite profiling: percent [13C6]glucose labeling and relative metabolite levels
Type: cell-based, human
Details: CEM cells, 12 h following release from G1 arrest, replicates #1-#6
Text: To further investigate the functions of dCK and ATR at the G1/S transition in CEM cells, a non-targeted liquid chromatography mass spectrometry (LC-MS) assay was used to determine the utilization of labeled [^13C6]glucose and [^13C9,^15N3]deoxycytidine, the main substrates for de novo and salvage nucleotide biosynthesis, respectively. Of the 166 metabolites identified in CEM cells treated with VE-822 and/or dCKi, 105 metabolites found in all four treatment groups contained glucose-derived ^13C atoms. […] These metabolites included intermediates such as rUTP, rCTP and rCDP in the de novo dCTP biosynthesis (Fig. 1d). […] However, several deoxyribonucleotides, including dCTP, were below the limit of detection of the non-targeted LC-MS approach, raising the concern that the sensitivity of this assay is not sufficient to measure the contribution of the salvage pathway or the ratio of de novo and salvage biosynthesis to these pools. To address this problem, a newly developed targeted MS assay was developed (Fig. 1e and Supplementary Fig. 3). In this assay, samples containing either extracted dNTPs or hydrolyzed DNA from labeled cells are separated by LC for detection by a triple quadrupole mass spectrometer using multiple reaction monitoring (LC-MS/MS-MRM). The first (Q1) and third (Q3) quadrupoles function as mass filters, while the second (Q2) quadrupole serves as a collision chamber (Fig. 1e). For instance, to profile the biosynthetic composition of deoxycytidine (dC) derived from hydrolyzed DNA or dCTP, an intact, protonated dC ion is selected in Q1, followed by fragmentation of the glycosidic bond, which releases protonated cytosine in Q2, that is filtered in Q3 and detected to generate an ion chromatogram. The peak areas for the ion chromatograms of salvage [^13C9,^15N3]dC (red trace), de novo [^13C5]dC (black trace, from [^13C6]glucose) and unlabeled dC (gray trace) (Fig. 1e) are used to determine the relative contributions of the de novo and salvage routes both to dCTP pools and to DNA-incorporated dCTP.
Cells were transferred into RPMI-1640 without glucose and supplemented with 10% dialyzed FBS (Gibco) containing the following labeled substrates: precursors for de novo [U-^13C6]glucose (Sigma-Aldrich, 389374) at 11 mM; precursors for purine salvage [U-^13C10,^15N5]dA (Cambridge Isotopes, CIL 3896), [^15N5]dA (Cambridge Isotopes, NLM-3895) and [^15N5]dG (Cambridge Isotopes, NLM-3899) at 5 µM or as indicated; and precursors for pyrimidine salvage: [U-^13C9,^15N3]dC (Silantes, 124603602) and [U-^13C10,^15N2]dT (Cambridge Isotopes, CNLM-3902) at 5 µM and [^15N2]orotate (Cambridge Isotopes, NLM-1048) at indicated concentrations. The cells were incubated for 12 h or as indicated before sample collection and processing. […]
Non-targeted LC-MS metabolic assays. 1 x 10^6 cells were washed with ice-cold 150 mM ammonium acetate twice before adding 1 mL of ice-cold 80% methanol with 10 nM norvaline as an internal standard. After vigorous vortexing, samples were centrifuged at maximum speed, the aqueous layer was transferred to a glass vial and the metabolites were dried under vacuum. Metabolites were resuspended in 50 μL 70% acetonitrile (ACN) and 5 μL of this solution used for the mass spectrometer-based analysis. The analysis was performed on a Q Exactive (Thermo Scientific) in polarity-switching mode with positive voltage 4.0 kV and negative voltage 4.0 kV. The mass spectrometer was coupled to an UltiMate 3000RSLC (Thermo Scientific) UHPLC system. Mobile phase A was 5 mM ammonium acetate (NH4AcO), pH 9.9, B was acetonitrile and the separation achieved on a Luna […] NH2 100 A column (150 × 2.0 mm, Phenomenex). The flow was 200 μL/min, and the gradient ran from 15% A to 95% A in 18 min, followed by an isocratic step for 9 min and re-equilibration for 7 min. Metabolites were detected and quantified as area under the curve based on retention time and accurate mass (≤ 3 p.p.m.) using the TraceFinder 3.1 (Thermo Scientific). Relative amounts of […]

CNCc1ccc(-c2cc(-c3nc(-c4ccc(S(=O)(=O)C(C)C)cc4)cnc3N)on2)cc1 [VE-822]
Glucose labeling, Tyr (C00082): 0.00% | Glucose labeling, Uric Acid (C00366): 0.00% | Relative level, Orotate: 0.7 | Glucose labeling, Lac (listed as V): 18.07% and 12.73% and 18.58% and 10.84% and 13.61% and 9.63% | Glucose labeling, Lys (listed as V): 0.00% (4×) and 1.11e-14% (2×) | Glucose labeling, Mal (listed as V): 21.43% and 21.55% and 21.63% and 20.66% and 20.63% and 19.36% | Glucose labeling, Met (listed as V): 0.00201% and 0.00233% and 0.002% and 0.0022% and 0.00164% and 0.00224% | Glucose labeling, N-Carbamoyl-L-aspartate (listed as V): 0.12% (3×) and 1.58% and 100.00% (2×) | Glucose labeling, NADP+ (listed as V): 0.00% (5×) and 100.00% | Glucose labeling, Nicotinamide (listed as V): 0.00% (4×) and -2.22e-14% and 1.11e-14% | Glucose labeling, Ornithine (listed as V): 0.12% (3×) and 0.10% and 0.0528% and 0.00133% | Glucose labeling, Orotate (listed as V): 100.00% (5×) and 0.0318% | Glucose labeling, Orotidine (listed as V): 33.66% and 31.88% and 29.83% and 33.19% and 33.56% and 35.92% | Glucose labeling, P-Choline (listed as V): 0.00204% (2×) and 0.00195% and 0.0016% and 0.00194% and 0.00159% | Glucose labeling, P-Ser (listed as V): 17.40% and 18.30% and 18.56% and 14.37% and 10.74% and 15.47% | Glucose labeling, Palmitate (listed as V): 0.0183% and 0.0339% and 0.00791% and 0.04% and 0.0649% and 0.00591% | Glucose labeling, Pantothenate (listed as V): 0.00% (5×) and 1.11e-14% | Glucose labeling, Pro (listed as V): 9.73% and 9.96% and 9.64% and 8.05% and 8.31% and 8.35% | Glucose labeling, Pro-OH (listed as V): 0.00141% and 0.00104% and 0.000977% and 0.00201% and 0.00147% and 0.00157% | Glucose labeling, R5P (listed as V): 100.00% (5×) and 87.46% | Glucose labeling, S7P (listed as V): 82.53% and 82.63% and 83.80% and 82.99% and 87.27% and 79.29% | Glucose labeling, SAM (listed as V): 61.24% and 62.78% and 63.01% and 60.62% and 59.88% and 60.86% | Glucose labeling, Ser (C00065) (listed as V): 11.13% and 10.40% and 10.89% and 9.46% and 9.59% and 9.87% | Glucose labeling, Shikimate (C00493) (listed as V): 0.00% (5×) and 1.11e-14% | Glucose labeling, Succ (C00042) (listed as V): 0.93% and 0.0737% (3×) and 0.000466% and 0.000404% | Glucose labeling, T (C00214) (listed as V): 0.47% and 0.23% and 0.34% and 0.00858% and 0.08% (2×) | Glucose labeling, Thymine (C00178) (listed as V): 0.000884% and 0.000908% and 0.01% and 0.02% (2×) and 0.000701% | Glucose labeling, Trp (C00078) (listed as V): 0.00% (4×) and -2.22e-14% and 1.11e-14% | Glucose labeling, Tyramine (C00483) (listed as V): 0.00% (4×) and -2.22e-14% and 1.11e-14% | Glucose labeling, UDP (C00015) (listed as V): 69.98% and 62.30% and 68.54% and 67.03% and 57.99% and 53.20% | Glucose labeling, UDP-Glc (C00029) (listed as V): 98.27% and 97.52% and 97.62% and 96.48% and 95.86% and 94.41% | Glucose labeling, UDP-GlcNAc (C00043) (listed as V): 91.42% and 92.87% (2×) and 89.85% and 89.76% and 89.80% | Glucose labeling, UMP (C00105) (listed as V): 70.24% and 69.75% and 64.97% and 37.55% and 64.64% and 60.30% | Glucose labeling, UTP (C00075) (listed as V): 73.32% and 70.31% and 75.59% and 75.28% and 69.74% and 72.15% | Glucose labeling, Uracil (C00106) (listed as V): 0.06% and 0.05% and 0.00305% and 0.0378% and 0.0737% (2×) | Glucose labeling, Urocanate (C00785) (listed as V): 0.00% (5×) and -2.22e-14% | Glucose labeling, Val (C00183) (listed as V): 0.00% (5×) and -2.22e-14% | Glucose labeling, Vit-C (C00072) (listed as V): 0.00% (5×) and -2.22e-14% | Glucose labeling, Xanthine (C00385) (listed as V): 0.12% (2×) and 0.06% and 0.0856% and 0.09% (2×) | Relative level, Lac (listed as V): 1.3 (2×) and 1.2 and 0.857 and 0.476 and 0.85 | Relative level, Leu/Ile (listed as V): 1.4 and 1.5 (2×) and 0.9 (2×) and 1.0 | Relative level, Lys (listed as V): 1.7 and 1.9 and 1.8 and 0.9 and 1.0 and 1.2 | Relative level, Mal (listed as V): 1.3 and 0.7 and 0.752 and 0.6 and 0.471 and 0.4 | Relative level, Met (listed as V): 1.5 (3×) and 0.9 (2×) and 1.0 | Relative level, N-Carbamoyl-L-aspartate (listed as V): 1.0 and 0.6 and 0.7 and 0.749 | Relative level, NAD+ (listed as V): 1.0 and 0.9 (2×) and 0.647 and 0.7 and 0.752 | Relative level, NADP+ (listed as V): 0.455 and 0.8 and 0.9 and 0.657 and 0.3 | Relative level, Nicotinamide (listed as V): 1.2 (2×) and 1.1 and 1.0 and 0.9 and 0.854 | Relative level, Ornithine (listed as V): 1.1 and 1.4 (2×) and 0.7 and 0.9 and 1.0 | Relative level, Orotidine (listed as V): 1.0 (3×) and 0.6 (2×) and 0.567 | Relative level, P-Choline (listed as V): 1.3 and 1.1 (2×) and 0.76 and 0.66 and 0.557 | Relative level, P-Creatine (listed as V): 1.7 and 0.9 (2×) and 0.7 and 1.5 and 1.2 | Relative level, P-EtA (listed as V): 1.1 and 0.7 and 0.6 and 1.7 and 0.744 and 0.5 | Relative level, P-Ser (listed as V): 1.0 (2×) and 1.1 and 0.37 and 0.234 and 0.273 | Relative level, PEP (listed as V): 0.435 and 0.082 | Relative level, Palmitate (listed as V): 0.9 (3×) and 1.1 and 1.2 and 1.0 | Relative level, Pantothenate (listed as V): 1.2 and 1.3 and 1.4 and 0.7 and 0.8 (2×) | Relative level, Phe (listed as V): 1.4 and 1.5 (2×) and 0.9 (2×) and 1.0 | Relative level, Pipecolate (listed as V): 1.6 and 1.9 and 1.8 and 0.9 (2×) and 1.2 | Relative level, Pro (listed as V): 1.3 (2×) and 1.4 and 0.851 and 0.9 (2×) | Relative level, Pro-OH (listed as V): 1.3 and 1.4 (2×) and 0.9 (3×) | Relative level, Pyr (listed as V): 2.1 and 3.2 and 1.3 and 0.7 and 1.1 and 6.3 | Relative level, R5P (listed as V): 3.5 and 1.8 and 2.1 and 1.2 and 0.468 and 0.53 | Relative level, S7P (listed as V): 3.0 and 1.6 and 2.7 and 1.2 and 0.9 and 0.6 | Relative level, SAM (listed as V): 1.6 and 1.7 (2×) and 0.9 and 1.1 (2×)
